Test results as given in the supplement of paper PMC10307832.

How the values were obtained:
Experiment in all cases: relative viability (nuclei count vs DMSO), 5 days (fraction); higher = more cells survive
[1] = compound: C1/C(=C\C2=CC=CS2)/C(=O)/C(=C/C3=CC=CS3)/C1 + CCNC(=O)c1noc(-c2cc(C(C)C)c(O)cc2O)c1-c1ccc(CN2CCOCC2)cc1 [Luminespib] (partner 0.01 µM)
How it was run: (§1)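 Five library-drug doses in √10 steps were combined with a fixed anchor-drug dose, or a single drug was given alone, by pin tool to lung cancer cell lines in 1536-well plates the day after seeding. Nuclei were stained and counted after 5 days. Relative viability is the nuclei count in treated wells over that in vehicle wells, taken as the median of duplicate plates.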

[2] = compound: C1/C(=C\C2=CC=CS2)/C(=O)/C(=C/C3=CC=CS3)/C1 + CS(=O)(=O)CCNCc1ccc(-c2ccc3ncnc(Nc4ccc(OCc5cccc(F)c5)c(Cl)c4)c3c2)o1 [Lapatinib] (partner 2 µM)
How it was run: as §1

[3] = compound: C1/C(=C\C2=CC=CS2)/C(=O)/C(=C/C3=CC=CS3)/C1 + NC(=O)Nc1cc(-c2cccc(F)c2)sc1C(=O)N[C@H]1CCCNC1 [AZD7762] (partner 0.2 µM)
How it was run: as §1

[4] = compound: C[C@]12O[C@H](C[C@]1(O)CO)n1c3ccccc3c3c4c(c5c6ccccc6n2c5c31)CNC4=O [Lestaurtinib] + CS(=O)(=O)N1CCN(Cc2cc3nc(-c4cccc5[nH]ncc45)nc(N4CCOCC4)c3s2)CC1 [Pictilisib] (partner 1 µM)
How it was run: as §1

Row | Cell Line | relative viability ([1]; first compound 0.2 µM) | relative viability ([1]; first compound 0.6325 µM) | relative viability ([1]; first compound 2 µM) | relative viability ([1]; first compound 6.325 µM) | relative viability ([1]; first compound 20 µM) | relative viability ([2]; first compound 0.2 µM) | relative viability ([2]; first compound 0.6325 µM) | relative viability ([2]; first compound 2 µM) | relative viability ([2]; first compound 6.325 µM) | relative viability ([2]; first compound 20 µM) | relative viability ([3]; first compound 0.2 µM) | relative viability ([3]; first compound 0.6325 µM) | relative viability ([3]; first compound 2 µM) | relative viability ([3]; first compound 6.325 µM) | relative viability ([3]; first compound 20 µM) | relative viability ([4]; first compound 0.005 µM) | relative viability ([4]; first compound 0.01581 µM) | relative viability ([4]; first compound 0.05 µM) | relative viability ([4]; first compound 0.1581 µM) | relative viability ([4]; first compound 0.5 µM)
1 | PC-14 | 0.139 | 0.145 | 0.179 | 0.187 | 0.15 | 0.352 | 0.362 | 0.353 | 0.293 | 0.27 | 0.433 | 0.357 | 0.352 | 0.306 | 0.432 | 0.639 | 0.49 | 0.283 | 0.254 | 0.171
2 | HOP-62 | 0.992 | 1.03 | 0.909 | 0.861 | 0.918 | 0.902 | 0.589 | 0.9 | 0.932 | 0.983 | 0.661 | 0.688 | 0.657 | 0.385 | 0.692 | 0.742 | 0.693 | 0.642 | 0.604 | 0.427
3 | NCI-H2087 | 0.215 | 0.161 | 0.177 | 0.133 | 0.158 | 0.866 | 0.825 | 1.08 | 0.894 | 1.09 | 1.46 | 1.29 | 1.18 | 1.17 | 1.25 | 0.872 | 0.745 | 0.53 | 0.689 | 0.322
4 | NCI-H1793 | 0.229 | 0.178 | 0.189 | 0.153 | 0.179 | 0.913 | 0.611 | 0.86 | 0.519 | 0.674 | 0.488 | 0.482 | 0.596 | 0.328 | 0.199 | 0.319 | 0.224 | 0.235 | 0.34 | 0.263
